Test results published in patent publication US9567318B2, “Substituted pyrimidine compounds and uses thereof” (Memorial Sloan-Kettering Cancer Center, priority 2009, dated 2017).

What follows are molecules tested on Kasumi-1 acute myeloid leukemia cells (assay: Growth Inhibition Assay (Alamar blue), Kasumi-1). Conditions: Homo sapiens, Kasumi 1, 72 h, Kasumi-1 cells.
Assay type: cell-based, human
Experimental: The IC50 values listed for some of these compounds illustrate the antiproliferative effects of the subject compounds and were obtained using the Growth Inhibition assays described herein.
Growth Inhibition Assay. Antiproliferative effects of inhibitors were evaluated using the dye Alamar blue. This reagent offers a rapid objective measure of cell viability in cell culture, and it uses the indicator dye resazurin to measure the metabolic capacity of cells, an indicator of cell viability. Briefly, cells were plated on Costar 96-well plates. For attached cells (such as SKBr3, MDA-MB-468, LNCaP, MRCS), 8,000 cells/well were used. For suspension cells (such as MOLM-13, Kasumi-1, OCI-Ly7, PBL), 20,000 cells/well were plated. Cells were allowed to incubate for 24 h at 37° C. before drug treatment. Drugs were added in triplicates at the indicated concentrations, and the plate was incubated for 72 h. Alamar Blue (440 μM) was added, and the plate read 6 h later using the Analyst GT (Fluorescence intensity mode, excitation 530 nm, emission 580 nm, with 560=dichroic mirror). Results were analyzed using the Softmax Pro software. The percentage cell growth inhibition was calculated by comparing fluorescence readings obtained from treated versus control cells, accounting for initial cell population (time zero).

| SMILES | IC50 [µM] |
| --- | --- |
| COc1nc(N2CCN(C)CC2)nc(OC)c1Sc1nc(NC(C)=O)cc(NC(C)=O)n1 [YK1, N,N′-(2-(4,6-dimethoxy-2-(4-methylpiperazin-1-yl)pyrimidin-5-ylthio)pyrimidine-4,6-diyl)diacetamide] | 15 |
| COc1nc(N2CCN(C)CC2)nc(OC)c1Sc1nc(N)cc(N)n1 [YK2, 2-(4,6-dimethoxy-2-(4-methylpiperazin-1-yl)pyrimidin-5-ylthio)pyrimidine-4,6-diamine] | 57.2 |
| COc1nc(N)nc(OC)c1Sc1nc(N)cc(NC(=O)CCN2CCN(C)CC2)n1 [YK6, N-(6-amino-2-(2-amino-4,6-dimethoxypyrimidin-5-ylthio)pyrimidin-4-yl)-3-(4-methylpiperazin-1-yl)propanamide] | 23 |
| COc1nc(N2CCOCC2)nc(OC)c1Sc1nc(NC(C)=O)cc(NC(C)=O)n1 [YK8, N,N′-(2-(4,6-dimethoxy-2-morpholinopyrimidin-5-ylthio)pyrimidine-4,6-diyl)diacetamide] | > 100 |
| COc1nc(N2CCCCC2)nc(OC)c1Sc1nc(NC(C)=O)cc(NC(C)=O)n1 [YK9, N,N′-(2-(4,6-dimethoxy-2-(piperidin-1-yl)pyrimidin-5-ylthio)pyrimidine-4,6-diyl)diacetamide] | > 100 |
| COc1nc(N2CCOCC2)nc(OC)c1Sc1nc(N)cc(N)n1 [YK11, 2-(4,6-dimethoxy-2-morpholinopyrimidin-5-ylthio)pyrimidine-4,6-diamine] | > 100 |
| COc1nc(N2CCCCC2)nc(OC)c1Sc1nc(N)cc(N)n1 [YK12, 2-(4,6-dimethoxy-2-(piperidin-1-yl)pyrimidin-5-ylthio)pyrimidine-4,6-diamine] | > 100 |
| CCC(=O)Nc1cc(N)nc(Sc2c(OC)nc(N3CCN(C)CC3)nc2OC)n1 [YK13, N-(6-amino-2-(4,6-dimethoxy-2-(4-methylpiperazin-1-yl)pyrimidin-5-ylthio)pyrimidin-4-yl)propionamide] | > 100 |
| CCC(=O)Nc1cc(N)nc(Sc2c(OC)nc(N3CCN(CCO)CC3)nc2OC)n1 [YK14, N-(6-amino-2-(2-(4-(2-hydroxyethyl)piperazin-1-yl)-4,6-dimethoxypyrimidin-5-ylthio)pyrimidin-4-yl)propionamide] | > 100 |
| CCC(=O)Nc1cc(N)nc(Sc2c(OC)nc(N3CCOCC3)nc2OC)n1 [YK15, N-(6-amino-2-(4,6-dimethoxy-2-morpholinopyrimidin-5-ylthio)pyrimidin-4-yl)propionamide] | > 100 |
| CCC(=O)Nc1cc(N)nc(Sc2c(OC)nc(N3CCCCC3)nc2OC)n1 [YK16, N-(6-amino-2-(4,6-dimethoxy-2-(piperidin-1-yl)pyrimidin-5-ylthio)pyrimidin-4-yl)propionamide] | > 100 |
| C=CC(=O)Nc1cc(N)nc(Sc2c(OC)nc(N3CCOCC3)nc2OC)n1 [YK18, N-(6-amino-2-(4,6-dimethoxy-2-morpholinopyrimidin-5-ylthio)pyrimidin-4-yl)acrylamide] | 3 |
| C=CC(=O)Nc1cc(N)nc(Sc2c(OC)nc(N3CCCCC3)nc2OC)n1 [YK19, N-(6-amino-2-(4,6-dimethoxy-2-(piperidin-1-yl)pyrimidin-5-ylthio)pyrimidin-4-yl)acrylamide] | 2.5 |
| CCCCCCCC(=O)Nc1cc(N)nc(Sc2c(OC)nc(N3CCN(C)CC3)nc2OC)n1 [YK20, N-(6-amino-2-(4,6-dimethoxy-2-(4-methylpiperazin-1-yl)pyrimidin-5-ylthio)pyrimidin-4-yl)octanamide] | 6.3 |
| CCCCCCCC(=O)Nc1cc(N)nc(Sc2c(OC)nc(N3CCN(CCO)CC3)nc2OC)n1 [YK21, N-(6-amino-2-(2-(4-(2-hydroxyethyl)piperazin-1-yl)-4,6-dimethoxypyrimidin-5-ylthio)pyrimidin-4-yl)octanamide] | 7.2 |
| CCCCCCCC(=O)Nc1cc(N)nc(Sc2c(OC)nc(N3CCOCC3)nc2OC)n1 [YK22, N-(6-amino-2-(4,6-dimethoxy-2-morpholinopyrimidin-5-ylthio)pyrimidin-4-yl)octanamide] | 12.3 |
| CCCCCCCC(=O)Nc1cc(N)nc(Sc2c(OC)nc(N3CCCCC3)nc2OC)n1 [YK23, N-(6-amino-2-(4,6-dimethoxy-2-(piperidin-1-yl)pyrimidin-5-ylthio)pyrimidin-4-yl)octanamide] | 13.2 |
| CCCCN1CCN(c2nc(OC)c(Sc3nc(NC(C)=O)cc(NC(C)=O)n3)c(OC)n2)CC1 [YK24, N,N′-(2-(2-(4-butylpiperazin-1-yl)-4,6-dimethoxypyrimidin-5-ylthio)pyrimidine-4,6-diyl)diacetamide] | 16.8 |

| SMILES | IC50 [µM] |
| --- | --- |
| CCCCN1CCN(c2nc(OC)c(Sc3nc(N)cc(N)n3)c(OC)n2)CC1 [YK25, 2-(2-(4-butylpiperazin-1-yl)-4,6-dimethoxypyrimidin-5-ylthio)pyrimidine-4,6-diamine] | > 100 |
| CCOc1nc(N2CCN(C)CC2)nc(OCC)c1Sc1nc(NC(C)=O)cc(NC(C)=O)n1 [YK29, N,N′-(2-(4,6-diethoxy-2-(4-methylpiperazin-1-yl)pyrimidin-5-ylthio)pyrimidine-4,6-diyl)diacetamide] | 76.7 |
| C=CC(=O)Nc1cc(N)nc(Sc2c(OCC)nc(N3CCN(C)CC3)nc2OCC)n1 [YK30, N-(6-amino-2-(4,6-diethoxy-2-(4-methylpiperazin-1-yl)pyrimidin-5-ylthio)pyrimidin-4-yl)acrylamide] | 0.48 |
| CCOc1nc(N2CCN(C)CC2)nc(OCC)c1Sc1nc(N)cc(NC(=O)C2CC2)n1 [YK33, N-(6-amino-2-(4,6-diethoxy-2-(4-methylpiperazin-1-yl)pyrimidin-5-ylthio)pyrimidin-4-yl)cyclopropanecarboxamide] | 88.7 |
| C/C=C/C(=O)Nc1cc(N)nc(Sc2c(OCC)nc(N3CCN(C)CC3)nc2OCC)n1 [YK34, (E)-N-(6-amino-2-(4,6-diethoxy-2-(4-methylpiperazin-1-yl)pyrimidin-5-ylthio)pyrimidin-4-yl)but-2-enamide] | 55 |
| C=CC(=O)Nc1cc(N)nc(Sc2c(OCC)nc(N3CCCCC3)nc2OCC)n1 [YK37, N-(6-amino-2-(4,6-diethoxy-2-(piperidin-1-yl)pyrimidin-5-ylthio)pyrimidin-4-yl)acrylamide] | 2.5 |
| CCOc1nc(N2CCCCC2)nc(OCC)c1Sc1nc(N)cc(NC(=O)CC)n1 [YK38, N-(6-amino-2-(4,6-diethoxy-2-(piperidin-1-yl)pyrimidin-5-ylthio)pyrimidin-4-yl)propionamide] | 50 |
| CCOc1nc(N2CCCCC2)nc(OCC)c1Sc1nc(N)cc(NC(=O)C2CC2)n1 [YK40, N-(6-amino-2-(4,6-diethoxy-2-(piperidin-1-yl)pyrimidin-5-ylthio)pyrimidin-4-yl)cyclopropanecarboxamide] | 38.3 |
| CCOc1nc(N2CCCCC2)nc(OCC)c1Sc1nc(NC(=O)C2CC2)cc(NC(=O)C2CC2)n1 [YK41, N,N′-(2-(4,6-diethoxy-2-(piperidin-1-yl)pyrimidin-5-ylthio)pyrimidine-4,6-diyl)dicyclopropanecarboxamide] | > 100 |
| C=CC(=O)Nc1cc(N)nc(Sc2c(OCC)nc(N3CCOCC3)nc2OCC)n1 [YK44, N-(6-amino-2-(4,6-diethoxy-2-morpholinopyrimidin-5-ylthio)pyrimidin-4-yl)acrylamide] | 1.2 |
| CCOc1nc(N2CCOCC2)nc(OCC)c1Sc1nc(N)cc(NC(=O)c2ccco2)n1 [YK49, N-(6-amino-2-(4,6-diethoxy-2-morpholinopyrimidin-5-ylthio)pyrimidin-4-yl)furan-2-carboxamide] | > 100 |
| C=CC(=O)Nc1cc(N)nc(Sc2c(OC)nc(N)nc2OC)n1 [YK50, N-(6-amino-2-(2-amino-4,6-dimethoxypyrimidin-5-ylthio)pyrimidin-4-yl)acrylamide] | 1.5 |
| COc1nc(N2CCN(C)CC2)nc(OC)c1Sc1nc(N)cc(NC(=O)CCN(C)C)n1 [YK51, N-(6-amino-2-(4,6-dimethoxy-2-(4-methylpiperazin-1-yl)pyrimidin-5-ylthio)pyrimidin-4-yl)-3-(dimethylamino)propanamide] | 8 |
| COc1nc(NCCCCCCO)nc(OC)c1Sc1nc(N)cc(N)n1 [YK52, 6-(5-(4,6-diaminopyrimidin-2-ylthio)-4,6-dimethoxypyrimidin-2-ylamino)hexan-1-ol] | 779 |
| COc1nc(N2CCN(C)CC2)nc(OC)c1Sc1nc(N)cc(NC(C)=O)n1 [YK53, N-(6-amino-2-(4,6-dimethoxy-2-(4-methylpiperazin-1-yl)pyrimidin-5-ylthio)pyrimidin-4-yl)acetamide] | 16 |
| C=CC(=O)Nc1cc(N)nc(Sc2c(OC)nc(N3CCN(CCOCCOCCOCCO)CC3)nc2OC)n1 [YK54, N-(6-amino-2-(2-(4-(2-(2-(2-(2-hydroxyethoxy)ethoxy)ethoxy)ethyl)piperazin-1-yl)-4,6-dimethoxypyrimidin-5-ylthio)pyrimidin-4-yl)acrylamide] | 4.8 |
| C=CC(=O)Nc1cc(N)nc(Sc2c(OC)nc(N3CCN(CCOCCOCCOCCOC(=O)CCCCC4SCC5NC(=O)NC54)CC3)nc2OC)n1 (stereo not drawn) [YK55, 2-(2-(2-(2-(4-(5-(4-acrylamido-6-aminopyrimidin-2-ylthio)-4,6-dimethoxypyrimidin-2-yl)piperazin-1-yl)ethoxy)ethoxy)ethoxy)ethyl 5-(2-oxohexahydro-1H-thieno[3,4-d]imidazol-4-yl)pentanoate] | 13.1 |
| COc1nc(N)nc(OC)c1Sc1nccc(NC(C)=O)n1 [YK61, N-(2-(2-amino-4,6-dimethoxypyrimidin-5-ylthio)pyrimidin-4-yl)acetamide] | 94.4 |
